PubChem BioAssay (NCI)
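Protocol summary: plate cells (96-well), add compound at 5 concentrations, incubate 48 h, interpolate endpoints linearly. At the GI50, growth is halved. At the TGI there is no net growth.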

Columns and labels:
Test in all cases: NCI-60 cell line screen, 48 h
[1] = system: 786-0 renal
[2] = system: A498 renal
[3] = system: A549 NSCLC
[4] = system: ACHN renal
[5] = system: BT-549 breast
[6] = system: CAKI-1 renal
[7] = system: CCRF-CEM leukemia
[8] = system: DU-145 prostate
[9] = system: EKVX NSCLC
[10] = system: HCT-116 colon
[11] = system: HCT-15 colon
[12] = system: HL-60(TB) leukemia
[13] = system: HOP-62 NSCLC
[14] = system: HT29 colon
[15] = system: K-562 leukemia
[16] = system: KM12 colon
[17] = system: LOX IMVI melanoma
[18] = system: M14 melanoma
[19] = system: MDA-MB-231 breast
[20] = system: MDA-MB-435
[21] = system: MOLT-4 leukemia
[22] = system: NCI-H226 lung
[23] = system: NCI-H23 lung
[24] = system: NCI-H460 lung
[25] = system: NCI/ADR-RES ovarian
[26] = system: OVCAR-3 ovarian
[27] = system: OVCAR-4 ovarian
[28] = system: OVCAR-5 ovarian
[29] = system: OVCAR-8 ovarian
[30] = system: PC-3 prostate
[31] = system: RPMI-8226 leukemia
[32] = system: SF-268 CNS
[33] = system: SF-295 CNS
[34] = system: SF-539 CNS
[35] = system: SK-MEL-28 melanoma
[36] = system: SK-MEL-5 melanoma
[37] = system: SK-OV-3 ovarian
[38] = system: SN12C renal
[39] = system: SNB-19 CNS
[40] = system: SNB-75 CNS
[41] = system: SW-620 colon
[42] = system: T-47D breast
[43] = system: TK-10 renal
[44] = system: U251 CNS
[45] = system: UACC-62 melanoma
[46] = system: UO-31 renal

## Cc1cc(-c2nc3n(c2/C=N/N=C(N)N)CCS3)c(C)s1
[1]
  GI50: 17.1 µM
  TGI: 30.8 µM
[2]
  GI50: 18.5 µM
  TGI: 33.6 µM
[3]
  GI50: 15.7 µM
  TGI: 44.3 µM
[4]
  GI50: 20 µM
  TGI: 39.5 µM
[5]
  GI50: 23.1 µM
  TGI: 42.5 µM
[6]
  GI50: 8.02 µM
  TGI: 23.8 µM
[7]
  GI50: 12.7 µM
  TGI: 37.1 µM
[8]
  GI50: 18.2 µM
  TGI: 34.7 µM
[9]
  GI50: 15.2 µM
  TGI: 34.6 µM
[10]
  GI50: 15.4 µM
  TGI: 28.7 µM
[11]
  GI50: 14.8 µM
  TGI: 28 µM
[12]
  GI50: 36.9 µM
  TGI: > 100 µM
[13]
  GI50: 17.5 µM
  TGI: 31.3 µM
[14]
  GI50: 17.4 µM
  TGI: 37.6 µM
[15]
  GI50: 19.1 µM
  TGI: 42.4 µM
[16]
  GI50: 6.7 µM
  TGI: 21.2 µM
[17]
  GI50: 15 µM
  TGI: 29.1 µM
[18]
  GI50: 18.9 µM
  TGI: 32.9 µM
[19]
  GI50: 13.4 µM
  TGI: 27.1 µM
[20]
  GI50: 18.5 µM
  TGI: 32.5 µM
[21]
  GI50: 30.1 µM
  TGI: > 100 µM
[22]
  GI50: 18.7 µM
  TGI: 37.9 µM
[23]
  GI50: 15 µM
  TGI: 28.2 µM
[24]
  GI50: 19.6 µM
  TGI: 35.7 µM
[25]
  GI50: 74.4 µM
  TGI: > 100 µM
[26]
  GI50: 21.9 µM
  TGI: 36.3 µM
[27]
  GI50: 36.2 µM
  TGI: > 100 µM
[28]
  GI50: 14.9 µM
  TGI: 29.8 µM
[29]
  GI50: 32.6 µM
  TGI: 63.4 µM
[30]
  GI50: 13.1 µM
  TGI: 27.7 µM
[31]
  GI50: 14 µM
  TGI: 30.7 µM
[32]
  GI50: 19.1 µM
  TGI: 35.5 µM
[33]
  GI50: 15.6 µM
  TGI: 29 µM
[34]
  GI50: 16.8 µM
  TGI: 31.3 µM
[35]
  GI50: 15.1 µM
  TGI: 29.4 µM
[36]
  GI50: 16.3 µM
  TGI: 29.9 µM
[37]
  GI50: 19.8 µM
  TGI: 36.9 µM
[38]
  GI50: 14.9 µM
  TGI: 28.9 µM
[39]
  GI50: 17.2 µM
  TGI: 35.3 µM
[40]
  GI50: 29.9 µM
  TGI: 48.8 µM
[41]
  GI50: 18.5 µM
  TGI: 35 µM
[42]
  GI50: 17.6 µM
  TGI: 32.5 µM
[43]
  GI50: 33.6 µM
  TGI: > 100 µM
[44]
  GI50: 15.6 µM
  TGI: 32.1 µM
[45]
  GI50: 12.9 µM
  TGI: 25.5 µM
[46]
  GI50: 17.8 µM
  TGI: 36.8 µM
